According to publication PMC9528096, “A phase Ib study of camrelizumab in combination with apatinib and fuzuloparib in patients with recurrent or metastatic triple-negative breast cancer” (BMC Medicine, 2022):

Experiment: clinical
Design: species or system human
Conditions: in vivo; for Tmax: human
Experimental: Adverse events were monitored throughout the study treatment from informed consent until 90 days after the last camrelizumab dose or 30 days after the last apatinib or fuzuloparib dose, whichever occurred later, and were graded according to the National Cancer Institute Common Terminology Criteria for Adverse Events version 5.0. Radiographic assessment was performed by computed tomography (CT) or magnetic resonance imaging (MRI) according to RECIST version 1.1 at baseline and every two cycles. Complete or partial responses were confirmed 4 weeks later. Blood samples for pharmacokinetic analysis of apatinib and fuzuloparib were collected in all patients enrolled in the dose-finding part and in six to eight patients enrolled in the dose-expansion part. To evaluate the pharmacokinetic data of single-agent apatinib, patients intended for pharmacokinetic analysis were given apatinib alone 3 days before combination treatment initiation. Blood samples were collected 30 min pre-dose, 30 min, 1 h, 2 h, 3 h, 4 h, 8 h, 12 h, and 24 h post-dose on day − 3 of cycle 0 and day 1 of cycle 1.
The primary endpoint was DLT in cycle 1.
Safety and antitumor activity analyses were performed in all patients who received at least one dose of the study treatment. Continuously distributed data were summarized as mean (standard deviation) or median (range). Categorical data were summarized by the number and percentage of patients in each category. Adverse events were summarized descriptively. Two-sided 95% confidence intervals (CIs) for ORR and DCR were calculated using the Clopper-Pearson method. The PFS, DOR, and 12-month OS rate and their corresponding 95% CIs were estimated using the Kaplan–Meier method. Analyses of safety and antitumor activity were performed with SAS version 9.4. Pharmacokinetic parameters were descriptively summarized with non-compartmental analysis using WinNonlin (version 8.2).

N#CC1(c2ccc(NC(=O)c3cccnc3NCc3ccncc3)cc2)CCCC1 [Apatinib, apatinib]
Tmax: 2 h
Apatinib exposure before and after co-administration with fuzuloparib: comparable

O=C(c1cc(Cc2n[nH]c(=O)c3ccccc23)ccc1F)N1CCn2nc(C(F)(F)F)nc2C1 [Fuzuloparib, fuzuloparib]
Tmax: 3 h
